Entries after “also recorded” stand apart in the source; their conditions may differ.
Assays:
[1] = tested on: M. abscessus clinical strains; test: Activity in the macrophage system against M. abscessus clinical strains; format: cell-based; conditions: all three clinical strains tested
NLRP3 inflammasome = test: RT-qPCR of NLRP3 inflammasome expression in THP-1 macrophages, uninfected or infected; format: cell-based
Method: THP-1 macrophages were differentiated with 50 ng/ml PMA for 24 hours, followed by 24 hours in media prior to infection. Differentiated THP-1 macrophages were infected with M. avium or M. abscessus for 1 hour with an MOI of 5. Infected cells were washed twice, followed by 1 hour of antibiotic treatment with 200 μg/ml of amikacin to remove extracellular bacteria. […] The treatments (see Table 2) included: (1) uninfected, (2) uninfected+range of BisEDT, (3) untreated+infected with M. avium, (4) M. avium infected+BIZ, (5) untreated+M. abscessus, and (6) M. abscessus infected+BIZ. The time points for sample preparation were 48 hours post infection. CFUs were determined as described above and RNA was collected from similar experiments.
(§1) THP-1 RNA from the cells was isolated using the Rneasy mini kit (Qiagen), followed by treatment with Dnase 1 recombinant (Roche Diagnostics) for 1 hour at 37° C. to remove contaminating genomic DNA. The DNase was inactivated with Turbo DNase-inactivation reagent (Turbo DNA-free kit, Thermo Fisher Scientific) for 2 min at 37° C. Inactivation reagent was removed via centrifugation for 1 min at 10,000×g, and RNA transferred to new collection tubes. RNA samples were stored at […] for future processing. cDNA was transcribed from host RNA using the iScript cDNA synthesis kit (Bio-Rad). The quality of cDNA was tested by PCR with Gold 360 master mix using the manufacturer's specifications (Thermo Fisher Scientific). The RT-qPCR reaction was performed using iQ SYBR Green Supermix (Bio-Rad) and an iCycler (CFX Connect Real-Time Systems, Bio-Rad) as previously described (1). Standard curves for each gene were run in each reaction and used to calculate absolute values of mRNA. Gene expression data are presented as relative expression to beta-actin. Primers (Table 3) were designed in Primer3 using sequences from GenBank (National Center for Biotechnology Information).

BEAS-2B cells = test: Cytokine ELISA in BEAS-2B cells; format: cell-based, human; conditions: 0.5, 1, 2 or 4 μg/mL, 24 hours, compared to untreated cells
Method: (§2) Protocol: BEAS-2B cells were grown in tissue culture flasks and a 24-well plate was seeded with 2×10^5 cells/well and incubated at 37° C. and 5% CO2 for 48 hours. Select wells were treated with either 4 μg/mL, 2 μg/mL, 1 μg/mL, or 0.5 μg/mL BisEDT or left untreated as a control and incubated at 37° C. and 5% CO2 for 24 hours. Cell culture supernatant was collected from each well and stored at −20° C. until further ELISA analysis. On the day of the ELISA assays to determine the expression of each cytokine, cell culture supernatant was thawed, and the assays performed following the manufacturer's instructions. Cells were collected for RNA isolation using Qiagen RNeasy kit using manufacturers' instructions. Briefly, genomic DNA was degraded with DNase (Roche) and samples were incubated at 37° C. for 1 hour followed by 3 μL DNase inactivation reagent (Invitrogen) incubated at 37° C. for 2 minutes. Samples were centrifuged at maximum speed for 5 minutes to remove the inactivation reagent. RNA concentration and quality was evaluated using a Nanodrop. RNA samples were utilized to generate cDNA using cDNA synthesis kit (Bio-Rad). qPCR for AIM2 and actin (housekeeping gene) was conducted using SYBR green kit (Bio-Rad) along with standards.

AIM2 inflammasome [2] = test: qPCR of AIM2 in HUVEC cells; format: cell-based, human; conditions: HUVEC cells, 0.5, 1, 2 or 4 μg/mL, 24 hours, compared to untreated cells
Method: as §2, with “HUVEC” for “BEAS-2B”, “manufacturer's” for “manufacturers'”, “standard.” for “standards.”

AIM2 inflammasome [3] = test: RT-qPCR of AIM2 inflammasome expression in THP-1 macrophages, uninfected or infected; format: cell-based
Method: THP-1 macrophages were differentiated with 50 ng/ml PMA for 24 hours, followed by 24 hours in media prior to infection. Differentiated THP-1 macrophages were infected with M. avium or M. abscessus for 1 hour with an MOI of 5. Infected cells were washed twice, followed by 1 hour of antibiotic treatment with 200 μg/ml of amikacin to remove extracellular bacteria. After the antibiotic treatment step, cells were washed once more and BisEDT (BIZ) was added at the indicated concentrations. The treatments (see Table 2) included: (1) uninfected, (2) uninfected+range of BisEDT, (3) untreated+infected with M. avium, (4) M. avium infected+BIZ, (5) untreated+M. abscessus, and (6) M. abscessus infected+BIZ. The time points for sample preparation were 48 hours post infection. CFUs were determined as described above and RNA was collected from similar experiments.
as §1

A549 cells = test: IL-10 expression (ELISA) in A549 cells; format: cell-based, human; conditions: 2 μg/mL and 4 μg/mL, 24 h, compared to untreated control
Method: A549 cells were differentiated with 50 ng/mL PMA for 24 hours, followed by 24 hours in media prior to infection. Cells were washed with media and treated with insoluble BisEDT or other antibiotics, and incubated for 24 h post treatment. Cell media was then removed and frozen at −80° C. Samples were briefly vortexed before conducting ELISA analysis for IL-10 expression (FIG. 1). BisEDT at a concentration of 2 μg/mL and 4 μg/mL increased the level of IL-10 expression level in A549 cells compared to untreated control.

SMILES: C1C[S][Bi]([S]CC[S][Bi]2[S]CC[S]2)[S]1 [BisEDT, 1,2-(Bis(1,3-dithia-2-bismolane)thio)ethane]
- activity against M. abscessus in the macrophage system [1]: very active (bactericidal)
- inhibitory effect on NLRP3 expression (NLRP3 inflammasome; BisEDT used after the infections): the inhibitory effect was not observed
- NLRP3 expression (NLRP3 inflammasome; M. abscessus (MAB 19977) infected cells pretreated with 0.5 μg/ml): reduced NLRP3 expression
- NLRP3 expression (NLRP3 inflammasome; M. abscessus infected cells): remained unchanged
- NLRP3 expression (NLRP3 inflammasome; M. avium (MAH 104) infected cells pre-treated with 2 μg/ml, vs M. avium only infected cells): higher NLRP3 expression
- NLRP3 expression (NLRP3 inflammasome; MAH 104 infection, 4 μg/ml treatment, vs MAH 104 infected cells): reduced NLRP3 expression
- NLRP3 inhibition (NLRP3 inflammasome; NTM-infected macrophages): even greater dose-related NLRP3 inhibition
- NLRP3 expression (NLRP3 inflammasome; pre-treatment with 1 μg/ml prior to MAB 19977 infection): did not impact NLRP3 expression
- NLRP3 inflammasome expression relative to beta-actin (NLRP3 inflammasome; uninfected THP-1 cells): dose-related inhibitory effect; also recorded: inhibits AIM2 and NLRP3 inflammasome expression
- expression of IL-1β (BEAS-2B cells): Consistent reduction
- expression of IL-10 (BEAS-2B cells): consistent increase
- expression of TNF-α (BEAS-2B cells): Consistent reduction
- AIM2 inflammasome expression (AIM2/Actin copy number) (AIM2 inflammasome [2]): inhibit AIM2 inflammasome expression
- AIM2 gene expression relative to beta-actin (AIM2 inflammasome [3]; M. abscessus infected THP-1 cells + 1 μg/ml BisEDT): even greater increase of expression
- AIM2 gene expression relative to beta-actin (AIM2 inflammasome [3]; M. avium infected THP-1 cells + BisEDT (2, 4 μg/ml)): did not change the gene expression
- AIM2 gene expression relative to beta-actin (AIM2 inflammasome [3]; uninfected THP-1 macrophages, 0.5-4 μg/ml BisEDT, 48 hours): The higher the dose, the more AIM2 gene expression was reduced; also recorded: inhibits AIM2 and NLRP3 inflammasome expression
- IL-10 expression level (A549 cells): increased
